Publication PMC12122562, “Phase 1 studies of the indenoisoquinolines LMP776 and LMP744 in patients with solid tumors and lymphomas” (Cancer Chemotherapy and Pharmacology, 2025)
“Also recorded” adds a separate entry of the source.

Tested on: patients with advanced, refractory solid tumors or lymphomas
Assay: Phase 1 trial of LMP776 (NCT01051635): safety, MTD, adverse events (CTCAE v4.0)
Type: in vivo
Source text: The primary objectives of each study included establishing safety, tolerability, MTD, and recommended phase 2 dose (RP2D) of LMP776 and LMP744 as single agents. The LMP744 study included evaluation of tumor pharmacodynamics as an exploratory objective. Both trials were opened at the National Cancer Institute’s (NCI) Developmental Therapeutics Clinic, and the LMP744 trial was also opened at the University of Pittsburgh Hillman Cancer Center. Both trials used an accelerated dose escalation designs (Simon design 4 for LMP776, Simon design 3 for LMP744) to determine the MTD [30]. Dose levels are listed in Supplementary Table 1. Once the MTD was determined, additional patients were enrolled at that DL in an expansion cohort to evaluate pharmacodynamic changes as described below. LMP776 and LMP744 were administered intravenously through a central line via a 1-h infusion on days 1–5 (QDx5) in 28-day cycles. Both agents were supplied by the NCI Division of Cancer Treatment and Diagnosis (DCTD). The studies were approved by the NIH Institutional Review Board and conducted in accordance with the Declaration of Helsinki.
Patients were enrolled in either NCT01051635 evaluating LMP776 or NCT03030417 evaluating LMP744; these trials were conducted sequentially. Both trials required that patients be ≥ 18 years of age with solid tumors or lymphomas refractory to other treatments. Patients were required to have adequate performance status (Eastern Cooperative Oncology Group [ECOG] performance status ≤ 2), bone marrow function, and organ function as described in the Supplementary Methods. Patients in expansion phases at the MTD were required to have disease amenable to biopsy collection and be willing to undergo research biopsies. All patients provided written informed consent.
Tumor responses were evaluated by serial CT scans according to RECIST v1.1 criteria. CT scans were performed every other cycle during the first year, then every 3 cycles after the first year. […] Criteria for all versions can be found at https://ctep.cancer.gov/protocolDevelopment/electronic_applications/ctc.htm. Any patient who received a dose of either agent was considered eligible for toxicity evaluation.

[1] = all DLs, highest grade per patient
[2] = grade 2, DL1-DL2 (n = 8; suppl. DL2, n=7)

Compound: COc1cc2c3c(n(CCCn4ccnc4)c(=O)c2cc1OC)-c1cc2c(cc1C3=O)OCO2 [LMP776]
- Grade 3 non-hematologic toxicities (DL8 (16 mg/m^2/day), one patient each): hypokalemia, hyponatremia, and hypophosphatemia
- Maximum tolerated dose (MTD) (IV QDx5, 28-day cycles (DL7)): 12 mg/m^2/day
- Anemia, grade ≥ 2, prevalence (across all DLs): 50%
- Lymphopenia, grade ≥ 2, prevalence (across all DLs): 38%
- Thrombocytopenia, grade ≥ 2, prevalence (across all DLs): 18%
- Alkaline phosphatase increased, grade ≥ 2, Total (%) (all DLs): 1 (3)
- Aspartate aminotransferase increased, grade ≥ 2, Total (%) (all DLs): 2 (6)
- Dehydration, grade ≥ 2, Total (%) (all DLs): 2 (6)
- Diarrhea, grade ≥ 2, Total (%) (all DLs): 1 (3)
- Dysgeusia, grade ≥ 2, Total (%) (all DLs): 2 (6)
- Fatigue, grade ≥ 2, Total (%) (all DLs): 3 (9)
- Hypercalcemia, grade ≥ 2, Total (%) (all DLs): 1 (3)
- Hypoalbuminemia, grade ≥ 2, Total (%) (all DLs): 3 (9)
- Hypoglycemia, grade ≥ 2, Total (%) (all DLs): 1 (3)
- Hypokalemia, grade ≥ 2, Total (%) (all DLs): 1 (3)
- Hypomagnesemia, grade ≥ 2, Total (%) (all DLs): 1 (3)
- Hyponatremia, grade ≥ 2, Total (%) (all DLs): 2 (6)
- Hypothyroidism, grade ≥ 2, Total (%) (all DLs): 1 (3)
- Mucositis - oral, grade ≥ 2, Total (%) (all DLs): 1 (3)
- Nausea, grade ≥ 2, Total (%) (all DLs): 2 (6)
- Vomiting, grade ≥ 2, Total (%) (all DLs): 1 (3)
- White blood cell decreased, grade ≥ 2, Total (%) (all DLs): 3 (9)
- Anemia, grade ≥ 2, Total (%) [1]: 17 (50)
- Hypophosphatemia, grade ≥ 2, Total (%) [1]: 4 (12)
- Lymphopenia (Lymphocyte count decreased), grade ≥ 2, Total (%) [1]: 13 (38)
- Neutropenia, grade ≥ 2, Total (%) [1]: 5 (15)
- Thrombocytopenia (Platelet count decreased), grade ≥ 2, Total (%) [1]: 6 (18)
- Patients requiring a dose reduction (enrolled at DL8): One
- Anemia, patients [2]: 5
- Hypophosphatemia, patients [2]: 1
- Lymphopenia (Lymphocyte count decreased), patients [2]: 2
- Hypoalbuminemia, patients (grade 2, DL2): 1
- Lymphopenia (Lymphocyte count decreased), patients (grade 2, DL3-DL4): 1
- Anemia, patients (grade 2, DL3-DL4 (n = 6)): 2
- Dehydration, patients (grade 2, DL5-DL6): 1
- Diarrhea, patients (grade 2, DL5-DL6): 1
- Fatigue, patients (grade 2, DL5-DL6): 1
- Neutropenia, patients (grade 2, DL5-DL6): 1
- Anemia, patients (grade 2, DL5-DL6 (n = 6)): 3
- Aspartate aminotransferase increased, patients (grade 2, DL7): 1
- Hypophosphatemia, patients (grade 2, DL7): 1
- Anemia, patients (grade 2, DL7 (n = 7)): 1
- Aspartate aminotransferase increased, patients (grade 2, DL8): 1
- Dehydration, patients (grade 2, DL8): 1
- Dysgeusia, patients (grade 2, DL8): 2
- Fatigue, patients (grade 2, DL8): 2
- Hypoalbuminemia, patients (grade 2, DL8): 2
- Hypomagnesemia, patients (grade 2, DL8): 1
- Hypophosphatemia, patients (grade 2, DL8): 1
- Hypothyroidism, patients (grade 2, DL8): 1
- Nausea, patients (grade 2, DL8): 2
- Neutropenia, patients (grade 2, DL8): 1
- Thrombocytopenia (Platelet count decreased), patients (grade 2, DL8): 1
- Vomiting, patients (grade 2, DL8): 1
- White blood cell decreased, patients (grade 2, DL8): 1
- Anemia, patients (grade 2, all DLs (n=34)): 11
- Aspartate aminotransferase increased, patients (grade 2, all DLs (n=34)): 2
- Dehydration, patients (grade 2, all DLs (n=34)): 2
- Diarrhea, patients (grade 2, all DLs (n=34)): 1
- Dysgeusia, patients (grade 2, all DLs (n=34)): 2
- Fatigue, patients (grade 2, all DLs (n=34)): 3
- Hypercalcemia, patients (grade 2, all DLs (n=34)): 1
- Hypoalbuminemia, patients (grade 2, all DLs (n=34)): 3
- Hypomagnesemia, patients (grade 2, all DLs (n=34)): 1
- Hyponatremia, patients (grade 2, all DLs (n=34)): 2
- Hypophosphatemia, patients (grade 2, all DLs (n=34)): 3
- Hypothyroidism, patients (grade 2, all DLs (n=34)): 1
- Lymphocyte count decreased, patients (grade 2, all DLs (n=34)): 3
- Nausea, patients (grade 2, all DLs (n=34)): 2
- Neutropenia, patients (grade 2, all DLs (n=34)): 2
- Platelet count decreased, patients (grade 2, all DLs (n=34)): 1
- Vomiting, patients (grade 2, all DLs (n=34)): 1
- White blood cell count decreased, patients (grade 2, all DLs (n=34)): 1
- Hypoglycemia, patients (grade 3, DL2): 1
- Lymphopenia (Lymphocyte count decreased), patients (grade 3, DL3-DL4): 2
- Anemia, patients (grade 3, DL3-DL4 (n = 6)): 1
- Lymphopenia (Lymphocyte count decreased), patients (grade 3, DL5-DL6): 1
- Alkaline phosphatase increased, patients (grade 3, DL7): 1
- Hyponatremia, patients (grade 3, DL7): 1
- Lymphopenia (Lymphocyte count decreased), patients (grade 3, DL7): 2
- Mucositis - oral, patients (grade 3, DL7): 1
- Thrombocytopenia (Platelet count decreased), patients (grade 3, DL7): 1
- Anemia, patients (grade 3, DL7 (n = 7)): 1
- Hypokalemia, patients (grade 3, DL8): 1
- Hyponatremia, patients (grade 3, DL8): 1
- Hypophosphatemia, patients (grade 3, DL8): 1
- Lymphopenia (Lymphocyte count decreased), patients (grade 3, DL8): 3
- Neutropenia, patients (grade 3, DL8): 2
- Thrombocytopenia (Platelet count decreased), patients (grade 3, DL8): 3
- White blood cell decreased, patients (grade 3, DL8): 1
- Anemia, patients (grade 3, DL8 (n = 7)): 4
- Alkaline phosphatase increased, patients (grade 3, all DLs (n=34)): 1
- Anemia, patients (grade 3, all DLs (n=34)): 6
- Hypoglycemia, patients (grade 3, all DLs (n=34)): 1
- Hypokalemia, patients (grade 3, all DLs (n=34)): 1
- Lymphocyte count decreased, patients (grade 3, all DLs (n=34)): 8
- Mucositis - oral, patients (grade 3, all DLs (n=34)): 1
- Neutropenia, patients (grade 3, all DLs (n=34)): 2
- Platelet count decreased, patients (grade 3, all DLs (n=34)): 3
- White blood cell count decreased, patients (grade 3, all DLs (n=34)): 1
- Hypercalcemia, patients (grade 4, DL2): 1
- Lymphopenia (Lymphocyte count decreased), patients (grade 4, DL8): 2
- Neutropenia, patients (grade 4, DL8): 1
- Thrombocytopenia (Platelet count decreased), patients (grade 4, DL8): 1
- White blood cell decreased, patients (grade 4, DL8): 1
- Lymphocyte count decreased, patients (grade 4, all DLs (n=34)): 2
- Neutropenia, patients (grade 4, all DLs (n=34)): 1
- Platelet count decreased, patients (grade 4, all DLs (n=34)): 1
- White blood cell count decreased, patients (grade 4, all DLs (n=34)): 1
- Dose-limiting toxicities (DLTs) (in vivo): hypercalcemia, anemia, and hyponatremia; also recorded: Hypercalcemia and hyponatremia were dose-limiting
- Nausea, prevalence (in vivo): 6%
